Assay results as given in ChEMBL document CHEMBL1201862, “PubChem BioAssay data set” (2004).
Activity calls are given as the source filed them.

Key:
Protein RecA = biological target: T1, Protein RecA (Mycobacterium tuberculosis, UniProt P9WHJ3); assay: GFP-RecA MOA-DTT Measured in Biochemical System Using Plate Reader - 2047-05_Inhibitor_Dose_DryPowder_Activity. [Related pubchem assays (depositor defined):AID2223]; design: species or system Mycobacterium tuberculosis H37Rv
T1 sequence (P9WHJ3 whole entry): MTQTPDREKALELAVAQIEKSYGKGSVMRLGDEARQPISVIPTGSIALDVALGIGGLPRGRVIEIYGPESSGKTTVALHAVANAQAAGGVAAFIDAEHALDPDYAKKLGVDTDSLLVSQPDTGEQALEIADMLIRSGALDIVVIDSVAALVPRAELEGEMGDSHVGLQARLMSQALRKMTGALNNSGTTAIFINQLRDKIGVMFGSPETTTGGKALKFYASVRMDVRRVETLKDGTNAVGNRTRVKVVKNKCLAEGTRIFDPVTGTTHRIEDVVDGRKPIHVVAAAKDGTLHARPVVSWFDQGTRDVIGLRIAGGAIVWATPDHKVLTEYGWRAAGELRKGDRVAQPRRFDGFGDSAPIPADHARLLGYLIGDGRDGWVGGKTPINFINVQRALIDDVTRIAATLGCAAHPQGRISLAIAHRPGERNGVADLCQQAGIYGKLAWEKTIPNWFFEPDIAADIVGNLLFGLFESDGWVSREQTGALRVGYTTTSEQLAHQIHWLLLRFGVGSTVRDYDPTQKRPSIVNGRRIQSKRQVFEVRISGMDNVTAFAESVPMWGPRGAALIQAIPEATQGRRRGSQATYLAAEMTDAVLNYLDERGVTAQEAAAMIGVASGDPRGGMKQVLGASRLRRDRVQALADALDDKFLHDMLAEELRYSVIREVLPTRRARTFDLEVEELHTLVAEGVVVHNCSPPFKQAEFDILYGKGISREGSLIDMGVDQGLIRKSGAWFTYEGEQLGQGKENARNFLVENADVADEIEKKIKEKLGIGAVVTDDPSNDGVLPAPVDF

[1] = cytotoxicity in HEK-293T cells, dose response, cytotoxicity control for TCR NF-kB inhibitor project, luminescence, T-cell screen hits (AID 489026); type: functional, cell-based;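 also: cells exposed to compound about 14 hours before the viability readout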
[2] = Intein inhibitors as potential Tuberculosis drugs, a cytotoxicity screen. [Related pubchem assays (depositor defined):AID2221, AID2223, AID434968, AID435010, AID449749, AID449750, AID489010]; type: functional
[3] = biological target: T2, Replicative DNA helicase DnaB (Mycobacterium tuberculosis, UniProt P9WMR3); assay: DnaB Intein secondary assay Measured in Biochemical System Using Plate Reader - 2047-04_Inhibitor_Dose_DryPowder_Activity. [Related pubchem assays (depositor defined):AID2223]
T2 sequence (P9WMR3 whole entry): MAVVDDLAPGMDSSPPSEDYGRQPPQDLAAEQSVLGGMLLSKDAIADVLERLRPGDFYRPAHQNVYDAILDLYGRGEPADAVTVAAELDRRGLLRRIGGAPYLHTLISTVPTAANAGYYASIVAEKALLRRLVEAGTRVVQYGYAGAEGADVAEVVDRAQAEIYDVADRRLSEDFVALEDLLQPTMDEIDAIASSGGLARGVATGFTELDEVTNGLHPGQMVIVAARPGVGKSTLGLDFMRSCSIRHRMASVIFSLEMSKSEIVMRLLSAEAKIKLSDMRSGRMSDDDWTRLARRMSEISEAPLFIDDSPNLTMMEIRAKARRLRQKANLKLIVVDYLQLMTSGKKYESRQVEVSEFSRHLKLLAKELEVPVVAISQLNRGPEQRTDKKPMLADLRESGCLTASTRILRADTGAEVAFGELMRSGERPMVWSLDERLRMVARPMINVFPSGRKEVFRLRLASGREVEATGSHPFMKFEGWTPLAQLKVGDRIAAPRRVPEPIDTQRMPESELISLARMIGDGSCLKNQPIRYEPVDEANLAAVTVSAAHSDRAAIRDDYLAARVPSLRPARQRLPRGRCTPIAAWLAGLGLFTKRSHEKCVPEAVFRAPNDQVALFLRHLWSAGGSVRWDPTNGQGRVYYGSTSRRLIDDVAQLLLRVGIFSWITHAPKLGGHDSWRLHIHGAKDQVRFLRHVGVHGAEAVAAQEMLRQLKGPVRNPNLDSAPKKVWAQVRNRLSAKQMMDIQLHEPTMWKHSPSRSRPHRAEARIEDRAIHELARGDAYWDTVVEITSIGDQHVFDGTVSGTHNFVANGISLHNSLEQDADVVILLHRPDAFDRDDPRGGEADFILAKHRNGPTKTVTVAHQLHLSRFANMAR

HeLa = assay: HeLa cell cytotoxicity, dose response, cytotoxicity control, 24 h, cherry-picked samples (AID 504726); type: functional, cell-based; details: Homo sapiens;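 also: potency for cytotoxicity as loss of luminescence signal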
[4] = biological target: Intestinal-type alkaline phosphatase (Mus musculus, UniProt P24822); assay: PubChem AID 488785; type: functional
Nonstructural protein 1 = Nonstructural protein 1 (Influenza A virus, UniProt Q194T2); type: functional, Influenza A virus (A/California/07/2009(H1N1))
[5] = biological target: Lysine-specific demethylase 4C (Homo sapiens, UniProt Q9H3R0); assay: GASC-1 (JMJD2C) histone demethylase inhibitors, dose response, biochemical, DELFIA europium, cherry-picked samples (AID 488835); type: functional
[6] = biological target: Intestinal-type alkaline phosphatase (Homo sapiens, UniProt P09923); assay: inhibition of human intestinal alkaline phosphatase – biochemical, dose response (AID 488876); type: functional
[7] = biological target: Matrix metalloproteinase-14 (Homo sapiens, UniProt P50281); assay: Dose Response confirmation of uHTS hits for a small molecule inhibitors of MT1-MMP activation in a fluorescence assay set 2.; type: functional
Bcl-2-related protein A1 = biological target: T3, Bcl-2-related protein A1 (Mus musculus, UniProt Q07440); type: functional;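 also: confirmatory dose–response counterscreen on Bfl-1, used to check hits from a UBC13 polyubiquitin inhibitor campaign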
T3 sequence (Q07440 whole entry): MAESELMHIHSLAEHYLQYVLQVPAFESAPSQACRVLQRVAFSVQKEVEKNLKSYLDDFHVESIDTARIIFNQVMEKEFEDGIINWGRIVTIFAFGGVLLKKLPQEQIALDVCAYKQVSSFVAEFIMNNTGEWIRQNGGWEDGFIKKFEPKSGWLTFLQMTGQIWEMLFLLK

[8] = CEM21 lymphoblast cell cytotoxicity, dose response, cytotoxicity control for viral fusion inhibitor project, CellTiter-Glo luminescence, cherry-picked (AID 652042); type: functional, cell-based;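 also: potency for signal decrease meaning cytotoxicity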
[9] = inhibitors of clade B AD8 Env fusion, dose response, cell-based, cherry-pick (AID 652062); type: functional;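 also: luciferase signal from cell-cell fusion driven by HIV-1 clade B AD8 Env; potency is for inhibitors of fusion seen as a drop in luminescence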
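For CC50 in this document: cells exposed to compound for 72 hours before luminescence readout.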

Intestinal-type alkaline phosphatase (Mus musculus, UniProt P24822), sequence (P24822 whole entry): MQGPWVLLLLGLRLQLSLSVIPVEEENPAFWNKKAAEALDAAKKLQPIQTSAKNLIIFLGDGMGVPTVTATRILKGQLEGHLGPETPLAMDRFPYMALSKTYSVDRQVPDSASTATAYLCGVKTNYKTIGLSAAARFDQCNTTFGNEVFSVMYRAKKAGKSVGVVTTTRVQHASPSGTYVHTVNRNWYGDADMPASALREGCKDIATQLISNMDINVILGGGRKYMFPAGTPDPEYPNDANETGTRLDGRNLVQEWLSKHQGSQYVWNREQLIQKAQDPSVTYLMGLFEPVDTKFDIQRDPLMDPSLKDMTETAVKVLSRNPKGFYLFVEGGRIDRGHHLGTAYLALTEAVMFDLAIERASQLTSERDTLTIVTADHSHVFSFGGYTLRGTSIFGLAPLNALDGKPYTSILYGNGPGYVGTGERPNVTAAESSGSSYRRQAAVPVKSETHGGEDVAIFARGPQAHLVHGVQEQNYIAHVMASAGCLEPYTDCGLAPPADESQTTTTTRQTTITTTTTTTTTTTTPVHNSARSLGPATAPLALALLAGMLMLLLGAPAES
Intestinal-type alkaline phosphatase (Homo sapiens, UniProt P09923), sequence (P09923 whole entry): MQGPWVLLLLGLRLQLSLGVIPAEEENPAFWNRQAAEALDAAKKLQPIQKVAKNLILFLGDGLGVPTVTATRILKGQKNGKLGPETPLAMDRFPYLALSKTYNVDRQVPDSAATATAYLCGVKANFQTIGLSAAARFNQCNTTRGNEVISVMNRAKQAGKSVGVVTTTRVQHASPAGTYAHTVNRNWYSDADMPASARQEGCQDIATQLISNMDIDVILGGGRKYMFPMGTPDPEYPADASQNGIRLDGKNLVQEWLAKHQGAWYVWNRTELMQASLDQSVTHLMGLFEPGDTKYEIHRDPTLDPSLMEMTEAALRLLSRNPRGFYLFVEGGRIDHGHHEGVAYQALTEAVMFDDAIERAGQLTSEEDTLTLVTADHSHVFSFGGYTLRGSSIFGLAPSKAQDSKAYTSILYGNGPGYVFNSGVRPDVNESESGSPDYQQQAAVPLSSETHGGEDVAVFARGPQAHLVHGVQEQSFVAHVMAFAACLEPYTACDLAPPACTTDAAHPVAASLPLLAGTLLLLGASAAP
Nonstructural protein 1, sequence (Q194T2 whole entry): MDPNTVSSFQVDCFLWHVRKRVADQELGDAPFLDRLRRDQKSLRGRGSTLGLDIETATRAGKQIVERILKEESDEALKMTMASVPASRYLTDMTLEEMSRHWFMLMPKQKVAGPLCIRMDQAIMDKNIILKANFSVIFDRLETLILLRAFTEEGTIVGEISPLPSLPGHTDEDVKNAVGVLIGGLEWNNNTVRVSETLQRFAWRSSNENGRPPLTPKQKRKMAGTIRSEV
Lysine-specific demethylase 4C, sequence (Q9H3R0 whole entry): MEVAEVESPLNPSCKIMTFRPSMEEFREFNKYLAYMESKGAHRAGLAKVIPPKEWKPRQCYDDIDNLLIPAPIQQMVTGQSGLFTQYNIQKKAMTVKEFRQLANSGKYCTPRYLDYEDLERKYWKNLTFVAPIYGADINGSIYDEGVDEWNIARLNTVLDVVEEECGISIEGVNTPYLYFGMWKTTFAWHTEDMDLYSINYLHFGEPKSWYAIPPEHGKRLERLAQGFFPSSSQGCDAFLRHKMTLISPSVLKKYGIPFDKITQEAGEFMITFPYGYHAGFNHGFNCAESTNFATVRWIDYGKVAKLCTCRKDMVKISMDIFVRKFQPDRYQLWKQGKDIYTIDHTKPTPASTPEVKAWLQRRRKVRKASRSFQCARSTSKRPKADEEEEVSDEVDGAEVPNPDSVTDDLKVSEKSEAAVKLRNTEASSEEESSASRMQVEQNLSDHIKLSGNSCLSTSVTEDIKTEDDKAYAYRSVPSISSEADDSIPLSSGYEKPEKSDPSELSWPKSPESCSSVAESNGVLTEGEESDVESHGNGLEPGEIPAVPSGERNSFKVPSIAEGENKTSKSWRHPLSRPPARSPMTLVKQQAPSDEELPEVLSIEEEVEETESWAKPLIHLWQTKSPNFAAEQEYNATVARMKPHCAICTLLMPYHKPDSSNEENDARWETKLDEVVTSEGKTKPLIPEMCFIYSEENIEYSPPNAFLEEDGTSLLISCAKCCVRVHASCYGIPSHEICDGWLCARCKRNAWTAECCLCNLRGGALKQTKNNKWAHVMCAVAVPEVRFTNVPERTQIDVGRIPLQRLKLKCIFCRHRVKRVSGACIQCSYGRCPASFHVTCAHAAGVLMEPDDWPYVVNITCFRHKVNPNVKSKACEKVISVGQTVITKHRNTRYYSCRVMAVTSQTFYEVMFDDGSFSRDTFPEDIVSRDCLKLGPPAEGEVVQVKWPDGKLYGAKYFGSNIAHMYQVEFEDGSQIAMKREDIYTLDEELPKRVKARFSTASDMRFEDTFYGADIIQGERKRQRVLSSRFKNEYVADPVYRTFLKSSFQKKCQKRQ

With `Cc1oc2c(c1C(=O)NCc1cccnc1)C(=O)c1ccccc1C2=O` the AC50 (Protein RecA) was 10.8 µM (active), the IC50 [1] was 7.67 µM (active) and the CC50 [2] was 0.52 µM (active). The AC50 [3] was 1.15 µM (active).
For `O=c1ccc2c(-c3ccccc3S(=O)(=O)O)c3ccc(O)c(O)c3oc-2c1O` [PYROGALLOL RED], the AC50 (HeLa) was 8.94 µM (active), the IC50 [4] was 12.4 µM (active) and the IC50 (Nonstructural protein 1) was 13.5 µM (active). The AC50 [5] was 1.78 µM (active), the IC50 [6] was > 100 µM (inactive) and the IC50 [7] was 19.6 µM (active).
In the case of `CCCCCCCCCCOC(=O)C[n+]1c(COc2ccccc2OC)n(C)c2ccccc21`, the IC50 (Bcl-2-related protein A1) is reported as 18.4 µM (active), the AC50 [8] is reported as 6.91 µM (active) and the AC50 [9] is reported as 4.02 µM (active).
